Assay [1] in a line: NIH-3T3 fibroblast cytotoxicity, dose response, cytotoxicity control, cell-based, fluorescence, Alamar Blue, secondary assay (AID 2327).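 Further: NIH-3T3 mouse fibroblasts cultured with fluconazole at 8 µg/mL.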 The format is functional.
The next assay addresses Nonstructural protein 1 (Influenza A virus, UniProt Q194T2). The format is functional, Influenza A virus (A/California/07/2009(H1N1)).
The target in assay [2] is Dual specificity tyrosine-phosphorylation-regulated kinase 4 (Homo sapiens, UniProt Q9NR20). In kind it is functional.
In assay [3] the target is Dual specificity protein kinase CLK2 (Homo sapiens, UniProt P49760). In kind it is functional.
Assay [4] addresses Maternal embryonic leucine zipper kinase (Homo sapiens, UniProt Q14680). The format is functional.
Assay [5] deals with Ribosomal protein S6 kinase alpha-5 (Homo sapiens, UniProt O75582). In kind it is functional.
In assay [6] the target is Cyclin-dependent kinase 8 (Homo sapiens, UniProt P49336). The experiment in a line: Navigating the Kinome. Panel member name: CDK8. In kind it is functional.
For assay [7], the target named is Dual specificity tyrosine-phosphorylation-regulated kinase 1B (Homo sapiens, UniProt Q9Y463). Kind of assay: Navigating the Kinome. Panel member name: DYRK1B. The format is functional.
Assay [8] concerns the target Glycogen synthase kinase-3 beta (Homo sapiens, UniProt P49841). In kind it is functional.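 Further: value comes from a broad kinome profiling panel, with GSK3B as the panel member.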
Assay [9] addresses Serine/threonine-protein kinase 17A (Homo sapiens, UniProt Q9UEE5). In kind it is functional.
For assay [10], the target named is Serine/threonine-protein kinase Nek4 (Homo sapiens, UniProt P51957). The format is functional.
Assay [11] has as its target 5'-AMP-activated protein kinase catalytic subunit alpha-1 (Homo sapiens, UniProt Q13131). In kind it is functional.
Assay [12] deals with Homeodomain-interacting protein kinase 2 (Homo sapiens, UniProt Q9H2X6). In kind it is functional.
In assay [13] the target is Serine/threonine-protein kinase Chk1 (Homo sapiens, UniProt O14757). The format is functional.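 Further: measured as one member of a kinome-wide kinase profiling panel.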
Serine/threonine-protein kinase Chk1, sequence (O14757 whole entry): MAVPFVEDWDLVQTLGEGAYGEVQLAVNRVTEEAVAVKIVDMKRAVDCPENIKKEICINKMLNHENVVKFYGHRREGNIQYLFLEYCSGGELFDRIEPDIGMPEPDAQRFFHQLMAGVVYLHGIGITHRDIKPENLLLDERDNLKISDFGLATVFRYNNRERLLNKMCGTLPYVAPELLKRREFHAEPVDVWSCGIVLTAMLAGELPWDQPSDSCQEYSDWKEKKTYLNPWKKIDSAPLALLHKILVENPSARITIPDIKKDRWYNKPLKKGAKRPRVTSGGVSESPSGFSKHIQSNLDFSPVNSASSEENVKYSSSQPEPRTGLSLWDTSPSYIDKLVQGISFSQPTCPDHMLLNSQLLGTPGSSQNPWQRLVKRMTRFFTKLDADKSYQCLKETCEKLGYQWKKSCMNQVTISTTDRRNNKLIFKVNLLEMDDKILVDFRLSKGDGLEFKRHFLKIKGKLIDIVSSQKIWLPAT
The target of assay [14] is Calcium/calmodulin-dependent protein kinase type II subunit delta (Homo sapiens, UniProt Q13557). In kind it is functional.
Calcium/calmodulin-dependent protein kinase type II subunit delta, sequence (Q13557 whole entry): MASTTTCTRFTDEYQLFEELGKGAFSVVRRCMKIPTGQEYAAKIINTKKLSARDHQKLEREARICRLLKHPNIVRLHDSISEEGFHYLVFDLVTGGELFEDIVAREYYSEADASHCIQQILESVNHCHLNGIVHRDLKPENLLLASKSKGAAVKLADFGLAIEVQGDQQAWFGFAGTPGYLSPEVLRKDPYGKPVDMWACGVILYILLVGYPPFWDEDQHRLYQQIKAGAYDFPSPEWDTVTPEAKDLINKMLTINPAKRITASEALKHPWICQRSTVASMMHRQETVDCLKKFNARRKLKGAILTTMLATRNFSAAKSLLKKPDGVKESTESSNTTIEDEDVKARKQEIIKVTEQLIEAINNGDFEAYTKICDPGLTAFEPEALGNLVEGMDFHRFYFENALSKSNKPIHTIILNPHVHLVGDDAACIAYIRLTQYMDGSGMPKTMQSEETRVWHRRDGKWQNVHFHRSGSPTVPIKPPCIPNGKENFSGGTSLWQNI
For assay [15], the target named is Macrophage-stimulating protein receptor (Homo sapiens, UniProt Q04912). The experiment in a line: Navigating the Kinome. Panel member name: MST1R. The format is functional.
Macrophage-stimulating protein receptor, sequence (Q04912 25-304 limits assumed): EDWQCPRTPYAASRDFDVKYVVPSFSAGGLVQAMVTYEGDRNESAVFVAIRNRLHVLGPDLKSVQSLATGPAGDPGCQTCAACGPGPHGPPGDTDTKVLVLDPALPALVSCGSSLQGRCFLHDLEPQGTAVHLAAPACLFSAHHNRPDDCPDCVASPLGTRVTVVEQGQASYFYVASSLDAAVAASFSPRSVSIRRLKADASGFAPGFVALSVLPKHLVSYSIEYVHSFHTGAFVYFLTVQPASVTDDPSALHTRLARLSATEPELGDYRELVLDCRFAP
Macrophage-stimulating protein receptor, sequence (Q04912 310-1400 limits assumed): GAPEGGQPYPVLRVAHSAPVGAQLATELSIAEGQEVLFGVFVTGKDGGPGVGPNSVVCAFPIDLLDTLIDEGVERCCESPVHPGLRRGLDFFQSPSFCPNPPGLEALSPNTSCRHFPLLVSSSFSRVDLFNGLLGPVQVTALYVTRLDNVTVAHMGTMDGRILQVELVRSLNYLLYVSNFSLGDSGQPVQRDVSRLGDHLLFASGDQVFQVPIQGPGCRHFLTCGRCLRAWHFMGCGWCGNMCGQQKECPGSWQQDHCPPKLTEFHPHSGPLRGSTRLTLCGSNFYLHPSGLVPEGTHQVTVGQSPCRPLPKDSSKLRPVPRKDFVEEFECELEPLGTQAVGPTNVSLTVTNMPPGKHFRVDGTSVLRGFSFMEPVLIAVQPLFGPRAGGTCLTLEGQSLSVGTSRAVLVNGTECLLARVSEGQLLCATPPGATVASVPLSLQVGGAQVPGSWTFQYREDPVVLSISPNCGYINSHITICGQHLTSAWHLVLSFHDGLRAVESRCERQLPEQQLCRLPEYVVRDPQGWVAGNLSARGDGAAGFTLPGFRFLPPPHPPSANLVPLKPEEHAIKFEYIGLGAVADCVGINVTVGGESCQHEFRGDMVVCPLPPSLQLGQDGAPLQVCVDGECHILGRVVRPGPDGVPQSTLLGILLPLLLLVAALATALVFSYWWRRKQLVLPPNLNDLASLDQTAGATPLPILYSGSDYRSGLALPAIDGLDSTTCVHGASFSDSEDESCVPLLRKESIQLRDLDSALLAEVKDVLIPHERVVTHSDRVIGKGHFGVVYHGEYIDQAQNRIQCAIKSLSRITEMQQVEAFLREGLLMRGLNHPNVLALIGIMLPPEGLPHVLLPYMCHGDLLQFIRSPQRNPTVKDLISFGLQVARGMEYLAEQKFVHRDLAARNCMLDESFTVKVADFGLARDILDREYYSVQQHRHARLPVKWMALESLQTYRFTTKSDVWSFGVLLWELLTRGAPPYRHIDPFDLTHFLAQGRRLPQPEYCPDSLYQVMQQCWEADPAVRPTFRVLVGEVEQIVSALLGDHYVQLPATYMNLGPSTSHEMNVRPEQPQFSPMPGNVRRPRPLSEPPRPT
For assay [16], the target named is Receptor tyrosine-protein kinase erbB-2 (Homo sapiens, UniProt P04626). Kind of assay: Navigating the Kinome. Panel member name: ERBB2. The format is functional.
Assay [17] addresses Serine/threonine-protein kinase PAK 1 (Homo sapiens, UniProt Q13153). The format is functional.
In assay [18] the target is Glycogen synthase kinase-3 alpha (Homo sapiens, UniProt P49840). The format is functional.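 Further: GSK3A result taken from a broad kinome-wide kinase panel.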
For assay [19], the target named is RAC-alpha serine/threonine-protein kinase (Homo sapiens, UniProt P31749). In kind it is functional.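 Further: AKT1 affinity measured as one member of a kinome-wide kinase profiling panel.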
Assay [20] concerns the target Serine/threonine-protein kinase PLK4 (Homo sapiens, UniProt O00444). In kind it is functional.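 Further: PLK4 measured as one member of a kinome-wide kinase profiling panel.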
In assay [21] the target is Mitogen-activated protein kinase kinase kinase kinase 4 (Homo sapiens, UniProt O95819). In kind it is functional.
The target in assay [22] is Vascular endothelial growth factor receptor 2 (Homo sapiens, UniProt P35968). In kind it is functional.
The target of assay [23] is Phosphorylase b kinase gamma catalytic chain, liver/testis isoform (Homo sapiens, UniProt P15735). The format is functional.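 Further: PHKG2 measured as one member of a kinome-wide kinase panel.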
Phosphorylase b kinase gamma catalytic chain, liver/testis isoform, sequence (P15735 whole entry, canonical isoform): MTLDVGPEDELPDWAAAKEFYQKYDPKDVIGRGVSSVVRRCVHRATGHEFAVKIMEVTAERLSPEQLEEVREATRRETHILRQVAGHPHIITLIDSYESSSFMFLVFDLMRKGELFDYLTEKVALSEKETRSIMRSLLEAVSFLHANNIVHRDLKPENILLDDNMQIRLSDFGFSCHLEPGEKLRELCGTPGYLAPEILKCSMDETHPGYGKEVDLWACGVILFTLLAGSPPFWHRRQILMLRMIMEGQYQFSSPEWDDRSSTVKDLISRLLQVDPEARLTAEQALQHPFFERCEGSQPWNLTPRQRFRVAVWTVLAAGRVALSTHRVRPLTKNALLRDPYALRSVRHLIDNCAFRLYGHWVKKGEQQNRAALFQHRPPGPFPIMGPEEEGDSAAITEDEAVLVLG
Assay [24] addresses Leukocyte tyrosine kinase receptor (Homo sapiens, UniProt P29376). Kind of assay: Navigating the Kinome. Panel member name: LTK. In kind it is functional.
The target of assay [25] is Interleukin-1 receptor-associated kinase 4 (Homo sapiens, UniProt Q9NWZ3). In kind it is functional.
For assay [26], the target named is Serine/threonine-protein kinase pim-2 (Homo sapiens, UniProt Q9P1W9). The format is functional.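 Further: value comes from a broad kinase panel profiling study in which PIM2 was one of the panel members.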
Assay [27] addresses Tyrosine-protein kinase receptor TYRO3 (Homo sapiens, UniProt Q06418). In kind it is functional.
The target in assay [28] is Serine/threonine-protein kinase BRSK1 (Homo sapiens, UniProt Q8TDC3). In kind it is functional.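 Further: measured within a kinome-wide kinase panel, with the target listed as KIAA1811.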
For assay [29], the target named is Tyrosine-protein kinase FRK (Homo sapiens, UniProt P42685). In kind it is functional.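 Further: FRK tested as one member of a kinome panel.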
Assay [30] concerns the target MAP kinase-interacting serine/threonine-protein kinase 2 (Homo sapiens, UniProt Q9HBH9). In kind it is functional.
The target of assay [31] is Mitogen-activated protein kinase 8 (Homo sapiens, UniProt P45983). The format is functional.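 Further: value comes from one member of a kinome-wide kinase profiling panel.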
The target of assay [32] is MAP kinase-activated protein kinase 3 (Homo sapiens, UniProt Q16644). The format is functional.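 Further: value comes from a kinome-wide profiling panel in which MAPKAPK3 is one of the panel members.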
The target of assay [33] is Serine/threonine-protein kinase PLK3 (Homo sapiens, UniProt Q9H4B4). The format is functional.
Assay [34] addresses Tyrosine-protein kinase ABL1 (Homo sapiens, UniProt P00519). The format is functional.
For assay [35], the target named is Mitogen-activated protein kinase 14 (Homo sapiens, UniProt Q16539). The format is functional.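 Further: part of a kinome-wide panel, MAPK14 entry.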
The target of assay [36] is Megakaryocyte-associated tyrosine-protein kinase (Homo sapiens, UniProt P42679). In kind it is functional.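 Further: affinity measured as one member of a kinase panel (Navigating the Kinome) against MATK.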
The target in assay [37] is Receptor tyrosine-protein kinase erbB-4 (Homo sapiens, UniProt Q15303). In kind it is functional.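 Further: ERBB4 member of a kinome-wide kinase profiling panel.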
Assay [38] deals with Protein kinase C theta type (Homo sapiens, UniProt Q04759). Kind of assay: Navigating the Kinome. Panel member name: PRKCQ. In kind it is functional.
Protein kinase C theta type, sequence (Q04759 whole entry): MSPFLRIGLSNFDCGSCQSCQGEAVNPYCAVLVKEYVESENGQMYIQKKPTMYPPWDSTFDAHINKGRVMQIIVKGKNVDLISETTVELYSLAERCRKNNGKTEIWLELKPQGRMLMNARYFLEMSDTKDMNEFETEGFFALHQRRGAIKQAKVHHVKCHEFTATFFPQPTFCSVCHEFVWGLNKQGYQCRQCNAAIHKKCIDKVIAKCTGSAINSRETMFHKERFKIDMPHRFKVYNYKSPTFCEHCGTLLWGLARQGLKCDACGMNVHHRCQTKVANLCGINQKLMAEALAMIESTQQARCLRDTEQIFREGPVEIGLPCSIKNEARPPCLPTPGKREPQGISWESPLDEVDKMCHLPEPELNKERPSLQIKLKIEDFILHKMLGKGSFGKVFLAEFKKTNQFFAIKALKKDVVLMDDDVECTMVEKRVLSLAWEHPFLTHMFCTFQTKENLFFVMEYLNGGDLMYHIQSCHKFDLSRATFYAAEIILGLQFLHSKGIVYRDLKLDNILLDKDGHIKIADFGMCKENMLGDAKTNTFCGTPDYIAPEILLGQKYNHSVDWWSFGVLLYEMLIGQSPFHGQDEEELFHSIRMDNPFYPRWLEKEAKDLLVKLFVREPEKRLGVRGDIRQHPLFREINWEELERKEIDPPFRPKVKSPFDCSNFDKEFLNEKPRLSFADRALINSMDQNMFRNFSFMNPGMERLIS
Another assay concerns the target Ephrin type-A receptor 2 (Homo sapiens, UniProt P29317). The format is functional.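 Further: EPHA2 tested as one member of a kinome-wide kinase panel.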
Assay [39] deals with Testis-specific serine/threonine-protein kinase 2 (Homo sapiens, UniProt Q96PF2). In kind it is functional.
Testis-specific serine/threonine-protein kinase 2, sequence (Q96PF2 whole entry): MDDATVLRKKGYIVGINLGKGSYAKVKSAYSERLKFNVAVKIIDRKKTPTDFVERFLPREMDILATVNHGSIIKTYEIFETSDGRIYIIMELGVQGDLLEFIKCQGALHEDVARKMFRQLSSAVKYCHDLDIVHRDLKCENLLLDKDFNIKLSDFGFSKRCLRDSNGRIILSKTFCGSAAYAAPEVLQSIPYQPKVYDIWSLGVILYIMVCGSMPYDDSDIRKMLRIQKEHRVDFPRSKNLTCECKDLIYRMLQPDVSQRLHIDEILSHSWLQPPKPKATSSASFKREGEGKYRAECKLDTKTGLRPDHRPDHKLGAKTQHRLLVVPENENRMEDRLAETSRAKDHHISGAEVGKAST
For assay [40], the target named is cAMP-dependent protein kinase catalytic subunit alpha (Homo sapiens, UniProt P17612). In kind it is functional.
Assay [41] addresses Mitogen-activated protein kinase kinase kinase 20 (Homo sapiens, UniProt Q9NYL2). In kind it is functional.
Assay [42] has as its target Tyrosine-protein kinase Blk (Homo sapiens, UniProt P51451). The format is functional.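 Further: obtained as one member of a kinome-wide kinase assay panel.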
Assay [43] has as its target Protein-tyrosine kinase 6 (Homo sapiens, UniProt Q13882). In kind it is functional.
Assay [44] addresses Mitogen-activated protein kinase kinase kinase 10 (Homo sapiens, UniProt Q02779). The experiment in a line: Navigating the Kinome. Panel member name: MAP3K10. In kind it is functional.

Calls of active or inactive are those of the source. Bounds are passed on as bounds.

In general, EC50 refers to the concentration needed to bring the measured effect to its halfway point. By IC50 is commonly meant the concentration at which inhibition is half-maximal. One may read the Ki as a measure of affinity in units of concentration, obtained from inhibition or displacement.

Protein-tyrosine kinase 6, sequence (Q13882 whole entry): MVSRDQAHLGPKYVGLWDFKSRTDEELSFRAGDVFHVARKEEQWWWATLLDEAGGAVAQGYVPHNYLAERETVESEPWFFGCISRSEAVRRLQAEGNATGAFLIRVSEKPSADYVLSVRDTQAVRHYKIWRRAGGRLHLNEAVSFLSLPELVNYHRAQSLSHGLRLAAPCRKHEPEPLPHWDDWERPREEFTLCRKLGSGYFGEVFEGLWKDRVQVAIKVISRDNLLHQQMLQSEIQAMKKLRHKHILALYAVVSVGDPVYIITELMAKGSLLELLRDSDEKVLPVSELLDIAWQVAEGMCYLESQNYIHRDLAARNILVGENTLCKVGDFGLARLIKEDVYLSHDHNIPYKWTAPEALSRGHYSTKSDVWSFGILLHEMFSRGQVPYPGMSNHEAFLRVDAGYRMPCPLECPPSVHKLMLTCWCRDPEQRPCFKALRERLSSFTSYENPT
Nonstructural protein 1, sequence (Q194T2 whole entry): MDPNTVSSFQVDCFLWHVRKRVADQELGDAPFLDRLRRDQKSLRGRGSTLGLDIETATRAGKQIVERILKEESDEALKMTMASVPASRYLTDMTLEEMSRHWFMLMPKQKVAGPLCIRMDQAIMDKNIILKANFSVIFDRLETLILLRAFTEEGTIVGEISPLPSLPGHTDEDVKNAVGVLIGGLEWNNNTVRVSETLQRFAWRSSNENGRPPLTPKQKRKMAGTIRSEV
Glycogen synthase kinase-3 beta, sequence (P49841 whole entry): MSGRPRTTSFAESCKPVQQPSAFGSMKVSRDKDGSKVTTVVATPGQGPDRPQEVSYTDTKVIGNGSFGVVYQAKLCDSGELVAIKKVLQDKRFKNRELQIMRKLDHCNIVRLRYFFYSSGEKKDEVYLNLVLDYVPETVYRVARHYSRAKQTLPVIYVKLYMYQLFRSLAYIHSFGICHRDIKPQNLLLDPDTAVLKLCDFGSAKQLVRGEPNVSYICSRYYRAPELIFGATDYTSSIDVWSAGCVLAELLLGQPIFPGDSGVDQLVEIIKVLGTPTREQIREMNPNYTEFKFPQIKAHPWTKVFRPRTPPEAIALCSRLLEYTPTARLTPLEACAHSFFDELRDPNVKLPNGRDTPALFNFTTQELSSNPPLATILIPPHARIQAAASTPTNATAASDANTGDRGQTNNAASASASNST

In the case of `CCCn1nc([N+](=O)[O-])c(C(C#N)c2nc3ccccc3s2)c(Cl)c1=O` (stereo unspecified), in [1], the EC50 was > 160000 nM (inactive). Also, the IC50 at Nonstructural protein 1 is 24700 nM (active).
On to `NCCCn1cc(-c2cc(-c3cc4ccccc4s3)c3[nH]ncc3c2)c2nc(N)ncc21`, for which the Ki is 794 nM (active) in assay [2]; > 2510 nM (inactive) in assay [3]; 251 nM (active) in assay [4]; 631 nM (active) in assay [5]; > 3980 nM (inactive) in [6]; 631 nM (active) in [7]. For the same compound, the Ki in [8] is 316 nM (active); in assay [9] it was 39.8 nM (active); in assay [10], 200 nM (active); in [11] it was 794 nM (active); in assay [12], 631 nM (active); in assay [13] it was 1260 nM (active). Further, the Ki in [14] was 158 nM (active); in [15] it was > 3980 nM (inactive); in assay [16], > 1580 nM (inactive); in assay [17], 63.1 nM (active); in [18], 126 nM (active); in assay [19], 251 nM (active). In addition, the Ki in [20] is 63.1 nM (active); in assay [21], > 3160 nM (inactive); in [22], > 5010 nM (inactive); in assay [23], 126 nM (active); in assay [24] it was > 2510 nM (inactive); in assay [25] it was 7940 nM (active). Also, the Ki in [26] is 100 nM (active); in [27], > 2510 nM (inactive); in assay [28], 79.4 nM (active); in assay [29], > 2510 nM (inactive); in [30] it was 25.1 nM (active); in assay [31], > 2510 nM (inactive). The inhibition constant Ki in assay [32] is 1580 nM (active); in [33], > 7940 nM (inactive); in assay [34] it was > 2510 nM (inactive); in [35] it was > 3980 nM (inactive); in assay [36], > 2000 nM (inactive); in assay [37] it was > 3980 nM (inactive). Further, the Ki in [38] was > 2000 nM (inactive); at Ephrin type-A receptor 2, > 3160 nM (inactive); in assay [39], 1580 nM (active); in [40], 39.8 nM (active); in assay [41] it was 2510 nM (active); in [42] it was > 1580 nM (inactive). For the same compound, the Ki in assay [43] was > 2510 nM (inactive); in [44], 126 nM (active).
